test: Solubility test in propylene glycol monomethyl ether (PGME); conditions: 5% by mass in PGME, 5° C., 30 days
Description: A compound was dissolved at 5% by mass in propylene glycol monomethyl ether (PGME) at 23° C. Then, the solution was left to stand still at 5° C. for 30 days.
Evaluation A: No precipitate was visually confirmed.
Evaluation C: Precipitates were visually confirmed.

Row | solubility (summary in words of Table 7) | SMILES
1 | good | CC(c1ccc(-c2ccccc2)cc1)(c1ccc(O)c(-c2ccccc2O)c1)c1ccc(O)c(-c2ccccc2O)c1 [BiP-3]
2 | good | CC(c1ccc(C2CCCCC2)cc1)(c1ccc(O)c(-c2ccccc2O)c1)c1ccc(O)c(-c2ccccc2O)c1 [BiP-4]
3 | good | CC(c1ccc(O)cc1)(c1ccc(O)cc1)c1ccc(C2CCCCC2)cc1 [P-2]
4 | good | CC1(c2ccc(-c3ccccc3)cc2)c2ccc(O)cc2Oc2cc(O)ccc21 [P-3]
5 | good | CC1(c2ccc(C3CCCCC3)cc2)c2ccc(O)cc2Oc2cc(O)ccc21 [P-4]
6 | good | CC1(c2ccc(-c3ccccc3)cc2)c2c(ccc3cc(O)ccc23)Oc2ccc3cc(O)ccc3c21 [XBiN-1]
7 | good | CC1(c2ccc(-c3ccccc3)cc2)c2c(ccc3ccc(O)cc23)Oc2ccc3ccc(O)cc3c21 [XBiN-2]
8 | good | CC1(c2ccc(C3CCCCC3)cc2)c2c(ccc3cc(O)ccc23)Oc2ccc3cc(O)ccc3c21 [XBiN-3]

Further lines, the molecule ahead of its results:

Row | SMILES | solubility (summary in words of Table 7)
9 | CC(c1ccc(-c2ccccc2)cc1)(c1c(O)ccc2ccccc12)c1c(O)ccc2ccccc12 [BiN-1] | good
10 | CC(c1ccc(-c2ccccc2)cc1)(c1c(O)ccc2cc(O)ccc12)c1c(O)ccc2cc(O)ccc12 [BiN-2] | good
11 | CC(c1ccc(-c2ccccc2)cc1)(c1c(O)ccc2ccc(O)cc12)c1c(O)ccc2ccc(O)cc12 [BiN-3] | good
12 | CC(c1ccc(C2CCCCC2)cc1)(c1c(O)ccc2cc(O)ccc12)c1c(O)ccc2cc(O)ccc12 [BiN-4] | good
13 | CC(c1ccc(-c2ccccc2)cc1)(c1ccc(O)c(-c2ccccc2)c1)c1ccc(O)c(-c2ccccc2)c1 [BiP-1] | good
14 | CC(c1ccc(-c2ccccc2)cc1)(c1cc(-c2ccc(O)cc2)ccc1O)c1cc(-c2ccc(O)cc2)ccc1O [BiP-2] | good
